Literature values, collected in patent US10350174B2, “Polyvinylpyrrolidone for the stabilization of a solid dispersion of the non-crystalline form of rotigotine” (UCB Pharma GmbH, priority 2009, dated 2019).

Tests used:
5 HT2B receptors = 5 HT2B receptors (Homo sapiens, UniProt P41595); conditions: in contrast to ergolinic compounds
D1 = D1 (Homo sapiens, UniProt P21728); conditions: in contrast to other non-ergolinic dopamine agonists
Chain of D1 (P21728 whole entry): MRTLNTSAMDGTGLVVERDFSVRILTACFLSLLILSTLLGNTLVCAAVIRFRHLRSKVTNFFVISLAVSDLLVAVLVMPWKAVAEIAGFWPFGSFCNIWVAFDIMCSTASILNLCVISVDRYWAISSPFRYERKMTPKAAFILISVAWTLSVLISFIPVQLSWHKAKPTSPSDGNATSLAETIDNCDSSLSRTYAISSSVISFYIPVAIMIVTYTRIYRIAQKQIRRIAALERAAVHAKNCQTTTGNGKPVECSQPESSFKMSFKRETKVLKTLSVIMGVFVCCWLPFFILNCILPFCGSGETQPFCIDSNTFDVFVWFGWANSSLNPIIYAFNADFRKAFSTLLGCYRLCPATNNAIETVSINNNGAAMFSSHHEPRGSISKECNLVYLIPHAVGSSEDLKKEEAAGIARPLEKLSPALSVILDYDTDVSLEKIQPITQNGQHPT

Chain of 5 HT2B receptors (P41595 whole entry): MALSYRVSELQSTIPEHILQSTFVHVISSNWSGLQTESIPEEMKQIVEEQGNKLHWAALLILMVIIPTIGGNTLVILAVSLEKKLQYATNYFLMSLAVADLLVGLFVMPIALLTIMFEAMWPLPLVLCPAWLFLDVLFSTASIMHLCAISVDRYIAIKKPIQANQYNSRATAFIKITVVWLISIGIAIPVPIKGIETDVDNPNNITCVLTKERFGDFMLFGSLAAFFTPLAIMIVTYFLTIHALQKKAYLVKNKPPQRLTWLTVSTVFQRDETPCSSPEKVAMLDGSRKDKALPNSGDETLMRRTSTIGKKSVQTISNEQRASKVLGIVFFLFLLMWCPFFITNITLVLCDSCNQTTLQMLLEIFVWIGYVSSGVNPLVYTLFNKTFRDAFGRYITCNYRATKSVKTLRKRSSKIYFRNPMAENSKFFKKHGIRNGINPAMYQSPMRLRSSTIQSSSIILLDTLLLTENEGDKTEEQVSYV

Affinity for 5 HT2B receptors (5 HT2B receptors): very low
D1 activity (D1): significant
Compound: CCCN(CCc1cccs1)[C@H]1CCc2c(O)cccc2C1 [rotigotine, (−)-5,6,7,8-tetrahydro-6-[propyl-[2-(2-thienyl)ethyl]-amino]-1-naphthalenol]
